Two compounds from article PMC9225989 (Signal Transduction and Targeted Therapy, 2022) can be followed below.

This assay concerns the target T1, cannabinoid receptor 1 (CB1R, hCB1R) (Homo sapiens, UniProt P21554).
T1 construct: gene CNR1; purified human CB1R (hCB1R) protein that is close to its full-length (473 amino acids)
Put plainly: biochemical. The assay is classed as binding.

T1 sequence (P21554 whole entry): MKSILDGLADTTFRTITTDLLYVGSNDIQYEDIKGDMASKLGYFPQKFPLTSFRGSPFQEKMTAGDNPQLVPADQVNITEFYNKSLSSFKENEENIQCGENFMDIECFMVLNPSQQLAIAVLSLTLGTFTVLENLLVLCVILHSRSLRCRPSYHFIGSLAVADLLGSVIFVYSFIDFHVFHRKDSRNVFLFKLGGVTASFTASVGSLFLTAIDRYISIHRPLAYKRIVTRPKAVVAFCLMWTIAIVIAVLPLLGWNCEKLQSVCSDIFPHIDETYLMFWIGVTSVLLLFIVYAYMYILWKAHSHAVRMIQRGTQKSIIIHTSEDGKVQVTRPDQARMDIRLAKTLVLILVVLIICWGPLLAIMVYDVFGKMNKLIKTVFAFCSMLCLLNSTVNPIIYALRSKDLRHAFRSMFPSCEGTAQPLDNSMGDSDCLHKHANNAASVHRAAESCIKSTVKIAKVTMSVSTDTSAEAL

For orientation: Kd means the free concentration of one partner at which half of the binding sites on the other are occupied at equilibrium, for simple one-to-one binding. With `CN1CCN(C2=Nc3cc(Cl)ccc3Nc3ccccc32)CC1` [Clz, clozapine], the affinity, expressed as Kd, was 2.65 nM. In other words, the single-digit nanomolar range.

`Cc1cc2c(s1)Nc1ccccc1N=C2N1CCN(C)CC1` [Olz, olanzapine]: the Kd came out at 2.53 nM.
